Here are results for 13 compounds from US11339161B2, “Triazolo pyridines as modulators of gamma-secretase” (Boehringer Ingelheim International GmbH, priority 2017, dated 2022).

In test [1] the test system is Aβ total. Briefly: Aβ total levels in H4 neuroglioma cells stably expressing human APP695 (MSD electrochemiluminescence). The class given is cell-based. The following applies: selectivity ratio vs. Aβtotal, Table 4a. The method, then: (§1) Cells were plated out to near confluency. The compounds to be tested were received as 10 mM stocks in 100% DMSO. A dilution series was initially generated in 100% DMSO and then diluted 200-fold in cell culture media such that the tested concentration range was 30 μM to 0.1 nM and the final DMSO concentration was 0.5%. The diluted compounds were incubated with the cells for 22 hours in an incubator at 37° C. and 5% CO2. Aβ42 levels were measured post-incubation from the supernatant of the cells using an Aβ42 specific electrochemiluminescence assay provided by Meso Scale Discovery (Catalog #L21CA-1). The measurement of Aβ42 levels were performed according to the manufacturer's protocol.
Aβ total levels were likewise determined using a specific electrochemiluminescence assay provided by Meso Scale Discovery (Catalog #L21ZA-1) according to the manufacturer's protocol.

In test [2] the test system is Aβ42 production. Briefly: Inhibition of Aβ42 production in H4 neuroglioma cells stably expressing human APP695 (MSD electrochemiluminescence). The class given is cell-based. The following applies: H4 neuroglioma cells expressing human APP695, 22 hours incubation; Table 4a. The procedure:
as §1

Test [3] addresses LYN B (Homo sapiens, UniProt P07948). The following applies: substrate Tyr 02, ATP bin 25 μM (ATP Km app 25 μM), read-out: IC50 of known inhibitor (inhibitor validation); cited from earlier work.
For test [4], the target named is ABL1 (Homo sapiens, UniProt P00519). The following applies: Z'-Lyte substrate Tyr 02, ATP bin 10 μM (ATP Km app 12 μM), read-out: IC50 of known inhibitor (inhibitor validation); cited from earlier work.
Sequence of ABL1 (P00519 whole entry): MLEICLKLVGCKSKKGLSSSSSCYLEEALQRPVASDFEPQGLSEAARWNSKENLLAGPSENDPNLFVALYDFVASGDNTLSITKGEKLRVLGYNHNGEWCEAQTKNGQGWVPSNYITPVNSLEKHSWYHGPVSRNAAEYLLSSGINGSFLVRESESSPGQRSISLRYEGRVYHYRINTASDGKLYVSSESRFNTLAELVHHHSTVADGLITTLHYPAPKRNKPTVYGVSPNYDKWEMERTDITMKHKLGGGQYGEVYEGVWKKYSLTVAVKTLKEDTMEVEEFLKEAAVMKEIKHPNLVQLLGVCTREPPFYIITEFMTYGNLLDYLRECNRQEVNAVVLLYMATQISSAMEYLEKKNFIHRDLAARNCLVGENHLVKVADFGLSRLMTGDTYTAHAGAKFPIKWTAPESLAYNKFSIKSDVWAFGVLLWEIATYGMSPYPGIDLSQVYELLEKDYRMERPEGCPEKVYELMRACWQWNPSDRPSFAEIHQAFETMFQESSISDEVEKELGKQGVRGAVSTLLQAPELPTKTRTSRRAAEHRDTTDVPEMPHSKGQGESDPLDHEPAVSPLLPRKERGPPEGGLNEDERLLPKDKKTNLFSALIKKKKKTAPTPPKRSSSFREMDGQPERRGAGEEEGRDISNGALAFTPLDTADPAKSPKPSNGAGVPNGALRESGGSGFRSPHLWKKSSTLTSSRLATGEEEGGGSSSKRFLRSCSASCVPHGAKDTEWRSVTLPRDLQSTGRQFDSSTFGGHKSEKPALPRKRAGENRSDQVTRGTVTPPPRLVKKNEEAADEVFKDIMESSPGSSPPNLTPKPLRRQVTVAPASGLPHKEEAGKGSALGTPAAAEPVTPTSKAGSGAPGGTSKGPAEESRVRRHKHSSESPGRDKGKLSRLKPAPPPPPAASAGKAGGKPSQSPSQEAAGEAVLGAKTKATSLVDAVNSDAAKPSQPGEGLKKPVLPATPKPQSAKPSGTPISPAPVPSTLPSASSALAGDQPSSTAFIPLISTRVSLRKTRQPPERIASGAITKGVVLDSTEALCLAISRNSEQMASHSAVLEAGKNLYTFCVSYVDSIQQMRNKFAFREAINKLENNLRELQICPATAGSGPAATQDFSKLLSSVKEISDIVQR
In test [5] the target is CSF1R (FMS) (Homo sapiens, UniProt P07333). The following applies: substrate Tyr 01, ATP bin 500 μM (ATP Km app 450 μM), read-out: IC50 of known inhibitor (inhibitor validation); cited from earlier work.
Sequence of CSF1R (FMS) (P07333 20-972): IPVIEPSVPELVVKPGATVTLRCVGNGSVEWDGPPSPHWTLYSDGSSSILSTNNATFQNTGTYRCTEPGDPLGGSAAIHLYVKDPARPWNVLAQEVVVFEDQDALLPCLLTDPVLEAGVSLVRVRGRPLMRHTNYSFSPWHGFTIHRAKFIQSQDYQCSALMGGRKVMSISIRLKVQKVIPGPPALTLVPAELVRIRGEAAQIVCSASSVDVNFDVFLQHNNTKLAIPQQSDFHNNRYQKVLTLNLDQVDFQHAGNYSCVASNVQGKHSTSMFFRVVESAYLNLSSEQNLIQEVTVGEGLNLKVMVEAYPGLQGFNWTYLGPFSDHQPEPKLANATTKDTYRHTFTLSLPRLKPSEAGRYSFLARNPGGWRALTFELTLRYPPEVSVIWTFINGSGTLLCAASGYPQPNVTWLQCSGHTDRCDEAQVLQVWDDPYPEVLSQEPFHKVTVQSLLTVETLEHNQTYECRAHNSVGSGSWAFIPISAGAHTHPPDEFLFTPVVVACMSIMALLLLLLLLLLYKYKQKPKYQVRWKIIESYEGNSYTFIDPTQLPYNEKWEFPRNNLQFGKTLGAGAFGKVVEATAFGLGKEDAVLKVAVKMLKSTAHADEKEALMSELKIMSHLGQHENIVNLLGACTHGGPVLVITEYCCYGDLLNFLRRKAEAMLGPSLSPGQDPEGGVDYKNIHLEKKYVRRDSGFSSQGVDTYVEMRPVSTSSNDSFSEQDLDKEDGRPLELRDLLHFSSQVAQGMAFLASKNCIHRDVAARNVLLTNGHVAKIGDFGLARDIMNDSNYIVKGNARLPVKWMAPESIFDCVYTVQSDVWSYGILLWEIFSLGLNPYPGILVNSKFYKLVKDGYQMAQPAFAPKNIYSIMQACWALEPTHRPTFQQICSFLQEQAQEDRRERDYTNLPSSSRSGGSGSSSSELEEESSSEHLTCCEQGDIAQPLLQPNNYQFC

Structures are written as SMILES. pIC50: −log10 of the molar value.

Sequence of LYN B (P07948 1-491 isoform P07948-2): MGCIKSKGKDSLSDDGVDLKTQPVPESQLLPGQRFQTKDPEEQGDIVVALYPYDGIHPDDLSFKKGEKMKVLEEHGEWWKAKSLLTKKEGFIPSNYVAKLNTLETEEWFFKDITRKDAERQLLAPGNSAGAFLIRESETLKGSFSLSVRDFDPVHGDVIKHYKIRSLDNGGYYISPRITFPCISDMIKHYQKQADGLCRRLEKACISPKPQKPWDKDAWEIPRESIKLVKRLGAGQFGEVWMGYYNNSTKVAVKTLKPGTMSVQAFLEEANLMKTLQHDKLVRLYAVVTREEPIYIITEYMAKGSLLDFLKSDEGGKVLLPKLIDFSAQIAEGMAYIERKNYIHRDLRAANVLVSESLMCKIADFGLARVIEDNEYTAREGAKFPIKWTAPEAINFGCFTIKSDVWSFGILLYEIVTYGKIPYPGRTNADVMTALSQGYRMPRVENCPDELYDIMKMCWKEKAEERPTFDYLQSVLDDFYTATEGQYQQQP

With `CCn1ncc2c1CCC(Nc1nc3c(-c4ccc(N(C)C)nc4)cccn3n1)C2` (stereo not drawn) [Example 72, [8-(6-Dimethylamino-pyridin-3-yl)-[1,2,4]triazolo[1,5-a]pyridine-2-yl]-(1-ethyl-4,5,6,7-tetrahydro-1H-indazol-5-yl)-amine], in test [1], the “Ratio AβTotal IC50/Aβ42 IC50” value turned out to be 538. Further, the pIC50 (commonly the negative decadic logarithm of the IC50, by convention in mol/L) in test [2] is 7.30.

Turning to `CCn1ncc2c1CCC(Nc1nc3c(-c4ccc(F)c(Cl)c4)cccn3n1)C2` (stereo not drawn) [Example 61, [8-(3-Chloro-4-fluoro-phenyl)-[1,2,4]triazolo[1,5-a]pyridine-2-yl]-(1-ethyl-4,5,6,7-tetrahydro-1H-indazol-5-yl)-amine], the “Ratio AβTotal IC50/Aβ42 IC50” value in test [1] is given as 152. The same compound gave a pIC50 in test [2] of 7.70.

As to `Cc1cc(F)ccc1-c1cccn2nc(NC3CCc4[nH]ncc4C3)nc12` (stereo not drawn) [Example 41, [8-(4-Fluoro-2-methyl-phenyl)-[1,2,4]triazolo[1,5-a]pyridine-2-yl]-(4,5,6,7-tetrahydro-1H-indazol-5-yl)-amine], in test [1], the “Ratio AβTotal IC50/Aβ42 IC50” value was found to be 1. The pIC50 in test [2] was 5.34.

`COc1cc2ncnc(Nc3cccc(Cl)c3)c2cc1OC` [Tyrphostin AG1478]: the pIC50 in test [3] was 6.62; in test [4], 6.38; in test [5] it was 5.35.

Consider `CCn1ncc2c1CCC(Nc1nc3c(-c4ccc(Cl)cc4)cccn3n1)C2` (stereo not drawn) [Example 60, [8-(4-Chloro-phenyl)-[1,2,4]triazolo[1,5-a]pyridine-2-yl]-(1-ethyl-4,5,6,7-tetrahydro-1H-indazol-5-yl)-amine], for which the “Ratio AβTotal IC50/Aβ42 IC50” value in test [1] is 113. The compound also showed a pIC50 in test [2] of 7.22.

With `CCn1ncc2c1CCC(Nc1nc3c(-c4cncc(C)c4)cccn3n1)C2` (stereo not drawn) [Example 66, (1-Ethyl-4,5,6,7-tetrahydro-1H-indazol-5-yl)-[8-(5-methyl-pyridin-3-yl)-[1,2,4]triazolo[1,5-a]pyridine-2-yl]-amine], the “Ratio AβTotal IC50/Aβ42 IC50” value in test [1] came to 154. The negative logarithm of the IC50 (pIC50) in test [2] was 6.70.

For `CCn1ncc2c1CCC(Nc1nc3c(-c4ccccc4Cl)cccn3n1)C2` (stereo not drawn) [Example 58, [8-(2-Chloro-phenyl)-[1,2,4]triazolo[1,5-a]pyridine-2-yl]-(1-ethyl-4,5,6,7-tetrahydro-1H-indazol-5-yl)-amine], in test [1], the “Ratio AβTotal IC50/Aβ42 IC50” value was determined as 34. In test [2], this compound gave a negative-log IC50 (pIC50) of 7.22.

Turning to `CCc1nnn2c1CCC(Nc1nc3c(-c4ccc(F)cc4C)cccn3n1)C2` (stereo not drawn) [Example 52, (3-Ethyl-4,5,6,7-tetrahydro-[1,2,3]triazolo[1,5-a]pyridine-6-yl)-[8-(4-fluoro-2-methyl-phenyl)-[1,2,4]triazolo[1,5-a]pyridine-2-yl]-amine], the “Ratio AβTotal IC50/Aβ42 IC50” value in test [1] is on record as 2. In test [2], this compound showed a pIC50 of 6.13.

For the compound `CCOC1Cc2c(cnn2CC)CC1Nc1nc2c(-c3cc(F)c(F)c(F)c3)cccn2n1` (stereo not drawn) [Example 50, (6-Ethoxy-1-ethyl-4,5,6,7-tetrahydro-1H-indazol-5-yl)-[8-(3,4,5-trifluoro-phenyl)-[1,2,4]triazolo[1,5-a]pyridine-2-yl]-amine], in test [1], the “Ratio AβTotal IC50/Aβ42 IC50” value worked out at 1. In test [2], this compound showed a negative logarithm of the IC50 (pIC50) of 4.66.

For the compound `CCn1ncc2c1CCC(Nc1nc3c(-c4cnccc4C)cccn3n1)C2` (stereo not drawn) [Example 64, (1-Ethyl-4,5,6,7-tetrahydro-1H-indazol-5-yl)-[8-(4-methyl-pyridin-3-yl)-[1,2,4]triazolo[1,5-a]pyridine-2-yl]-amine], the “Ratio AβTotal IC50/Aβ42 IC50” value in test [1] was determined as 41. In test [2], this compound had a negative-log IC50 (pIC50) of 6.14.

On to `CCn1ncc2c1CCC(Nc1nc3c(-c4cccnc4C)cccn3n1)C2` (stereo not drawn) [Example 65, (1-Ethyl-4,5,6,7-tetrahydro-1H-indazol-5-yl)-[8-(2-methyl-pyridin-3-yl)-[1,2,4]triazolo[1,5-a]pyridine-2-yl]-amine], for which the “Ratio AβTotal IC50/Aβ42 IC50” value in test [1] is given as 44. For the same compound, in test [2], the negative-log IC50 (pIC50) is 6.17.

As for `CCc1nnc2n1CCC(Nc1nc3c(-c4ccc(F)cc4C)cccn3n1)C2` (stereo not drawn) [Example 53, (3-Ethyl-5,6,7,8-tetrahydro-[1,2,4]triazolo[4,3-a]pyridine-7-yl)-[8-(4-fluoro-2-methyl-phenyl)-[1,2,4]triazolo[1,5-a]pyridine-2-yl]-amine], in test [1], the “Ratio AβTotal IC50/Aβ42 IC50” value turned out to be 1. For the same compound, the pIC50 in test [2] is 5.86.

As to `CCn1ncc2c1CCC(Nc1nc3c(-c4cc(F)c(F)c(F)c4)cccn3n1)C2` (stereo not drawn) [Example 62, (1-Ethyl-4,5,6,7-tetrahydro-1H-indazol-5-yl)-[8-(3,4,5-trifluoro-phenyl)-[1,2,4]triazolo[1,5-a]pyridine-2-yl]-amine], in test [1], the “Ratio AβTotal IC50/Aβ42 IC50” value amounted to 128. In addition, the pIC50 in test [2] is 7.52.
